The values below come from patent publication US20090227632A1, “PHARMACEUTICAL COMPOSITION COMPRISING, IN COMBINATION, SAREDUTANT AND A SELECTIVE SEROTONIN REUPTAKE INHIBITOR OR A SEROTONIN/NOREPINEPHRINE REUPTAKE INHIBITOR” (priority 2006, published 2009).

The test system of this assay is rat. The assay can be described thus: DRL-72 s (Differential Reinforcement of Low-rate-72 seconds) in-vivo rat test. The settings on record: for % reinforced presses/total number of presses: n = 8 rats, test duration 1 hour, mean±SEM, solvent control 3.07 ± 0.48%; for minimum active dose in the DRL-72 s test: compound alone, intraperitoneally, rat. From the text: The in-vivo rat test DRL-72 s (Differential Reinforcement of Low-rate-72 seconds) is used according to the technique described by C. Louis et al., Neuropsychopharmacology, 2006, 1-8.
Effects compared with regard to the percentage of rewards obtained (reinforced presses) with respect to the total number of presses by the rat after intraperitoneal administration of the compound A alone, of the compound B alone and of the compound A+compound B combination versus the control (solvent alone).
Beforehand, the minimum active doses of the compound A alone and of the compound B alone in the DRL-72 s test were determined, namely: • compound A: 10 mg/kg intraperitoneally; • compound B: 5 mg/kg intraperitoneally.
The compound A alone at the dose of 3 mg/kg and the compound B alone at the dose of 2.5 mg/kg were dissolved in a 0.9% (weight/volume) aqueous sodium chloride solution comprising 0.1% (v/v) Tween 80® and administered intraperitoneally at a final volume of 1 ml/kg.
The combination was administered intraperitoneally by two simultaneous administrations of the compound A (3 mg/kg) and then of the compound B (2.5 mg/kg).
The doses of the compounds are expressed in the free base form.
For the requirements of the test, the effect of the compound A alone, the effect of the compound B alone and the effect of the compound A+compound B combination, compared with the effect of the solvent (control), are measured for each animal.
Each rat (n=8) thus receives four injections spread out over time, namely the solvent (control), the compound A alone, the compound B alone and the compound A+compound B combination.
The results obtained are collated in Table I and are expressed as a percentage of rewards obtained with respect to the total number of presses over the duration of the test (1 hour), in the mean±SEM (standard error of the mean) form.

On to `CNCCC(Oc1ccc(C(F)(F)F)cc1)c1ccccc1` (racemic) [Compound B, (±)-N-methyl-3-phenyl-3-[4-(trifluoromethyl)phenoxy]propan-1-amine], for which the “minimum active dose in the DRL-72 s test” value came to 5 mg/kg. Where the note is “compound B alone 2.5 mg/kg i.p.”, the “percentage number of rewards obtained with respect to the control (in words)” value was “does not modify”. Also, the “% reinforced presses/total number of presses” value (compound B alone 2.5 mg/kg intraperitoneally) is 3.82 ± 0.76%.
Regarding `CC(=O)NC1(c2ccccc2)CCN(CC[C@H](CN(C)C(=O)c2ccccc2)c2ccc(Cl)c(Cl)c2)CC1` [Compound A, (S)-(−)-N-[4-(4-Acetamido-4-phenylpiperidin-1-yl)-2-(3,4-dichlorophenyl)butyl]-N-methylbenzamide], the “minimum active dose in the DRL-72 s test” value was 10 mg/kg. Also, the “percentage number of rewards obtained with respect to the control (in words)” value (compound A alone 3 mg/kg i.p., increase not statistically significant) was “only slightly modifies”. Further, the “% reinforced presses/total number of presses” value (compound A alone 3 mg/kg intraperitoneally) came out at 6.41 ± 1.73%.
